Consider two compounds from US12357612B2, “Prophylactic or therapeutic agent for cancer” (TOHOKU UNIVERSITY, priority 2019, dated 2025).

Structures are written as SMILES.

In assay [1] the test system is model mice of colorectal cancer (AOM/DSS). Nature of the assay: Model mice of colorectal cancer (AOM/DSS), oral administration. In kind it is in vivo, ICR mice. As to conditions: for ratio of tumor area in the colon / number of tumors having a diameter of more than 2 mm / tumor area in the colon: versus placebo group; for ratio of tumor area in the colon: FIG. 2A; for number of tumors having a diameter of more than 2 mm: FIG. 2B; for colon length: shortening in placebo group versus control group, FIG. 1B; for tumor area in the colon: FIG. 1A. As for the experimental part: Model mice of colorectal cancer were prepared using azoxymethane (AOM; manufactured by Wako Pure Chemical Industries, Ltd.) and dextran sulfate sodium (DSS, manufactured by MP Biomedicals). Specifically, 5-week-old male ICR mice (produced by CLEA Japan) were first acclimated and bred for 1 week. At 6 weeks of age, the mice were randomly divided in a control group and 5 colorectal cancer groups (placebo group, Present Compound #1[1] group, Present Compound #1[10] group, Present Compound #2[1] group, and Present Compound #2[10] group), and 10 (mg/kg body weight) of AOM was intraperitoneally administered to the colorectal cancer groups. Seven days later, the mice were allowed to freely drink 2.5% (w/v) DSS for 1 week, and then tap water for 14 days. This administration of DSS was performed for […] to prepare model mice of colorectal cancer. When the above AOM was intraperitoneally administered (that is, at 6 weeks of age), physiological saline solutions containing 1 (mg/kg body weight/day) and 10 (mg/kg body weight/day) of the Present Compound #1 were orally administered for 70 consecutive days thereafter to the Present Compound #1(1) group and the Present Compound #1(10) group, respectively, physiological saline solutions containing 1 (mg/kg body weight/day) and 10 (mg/kg body weight/day) of the Present Compound #2 were orally administered for 70 consecutive days thereafter to the Present Compound #2(1) group and the Present Compound #2(10) group, respectively, and a physiological saline solution was orally administered for 70 consecutive days thereafter to the placebo group. In addition, to the control group, a physiological saline solution was orally administered at 6 weeks of age for 70 consecutive days thereafter. All mice were sacrificed and the colons were harvested immediately after the end of the third cycle. The colons were photographed in full length and the colon length (see FIG. 1B), as well as the tumor area in the colon (see FIG. 1A), the ratio of tumor area in the colon (see FIG. 2A), and the number of tumors having a diameter of more than 2 mm (see FIG. 2B) were measured. Note that, for the tumors, the elevated lesions that were thought to contain cancer were visually observed in the colon (large intestine), and the area of these elevated lesions (that is, the tumors) and the total colon area were calculated by NIH Image J version 1.51 (US National Institutes of Health, MD, http://imagej.nih.gov/ij/index.html). The ratio of tumor area in the colon was calculated based on the formula “(elevated lesion area/total colon area)×100”.
Student's t-test was used for the comparison between two groups, and Dunnet's test or Tukey's test was used for the comparison between three groups. The survival rate (see FIG. 3) was evaluated by a log-rank test using the Kaplan-Meier survival curve. JMP version 14 (manufactured by SAS Institute) was used for statistical analysis. For all test results, p-values less than 0.05 were considered statistically significant.

Assay [2] relates to colorectal cancer cell line HCT116. Description: Cell migration test. In kind it is cell-based, human. As to conditions: 50 μM, 48 hours, HCT116, 20% FBS as attractant; versus absence of compound; FIG. 4. As for the experimental part:
Cells of the human colorectal cancer cell line HCT116 (obtained from ATCC) were cultured and maintained in a DMEM (Dulbecco's Modified Eagle Medium) culture solution (manufactured by Sigma-Aldrich) containing 10% fetal bovine serum (FBS) (manufactured by Biowest) and 1% penicillin-streptomycin (manufactured by Thermo Fisher Science) under the conditions of 5% CO2/20% O2 and 37° C.
7.5×10^4 cells of the colorectal cancer cell line HCT116 were seeded in each well of the Corning Fluoroblok 24-Multiwell Insert Systems (pore size: 8.0 μm) (manufactured by Corning), and cultured for 48 hours in FBS-free DMEM culture solution or FBS-free DMEM culture solution containing 50 μM of the Present Compound #2. Note that a DMEM culture solution containing 20% FBS, which is an attractant, was added to the chamber at the bottom of the plate. The migrating cells that had passed through the membrane on the lower surface of the cell culture insert were stained using a Diff-Quik kit (manufactured by Sysmex), the membrane was air-dried, and then the number of cells was measured in three fields of view using a phase-contrast microscope.
Student's t-test was used for the comparison between two groups, and Dunnet's test or Tukey's test was used for the comparison between three groups. The survival rate (see FIG. 3) was evaluated by a log-rank test using the Kaplan-Meier survival curve. […]

Where [3] appears, read: 1 mg/kg body weight/day orally for 70 consecutive days.
Where [4] appears, read: 10 mg/kg body weight/day orally for 70 consecutive days.

For `O=C(CC(C(=O)O)c1c[nH]c2ccccc12)c1ccc(F)cc1F` (centres unmarked) [Present Compound #1, 4-(2,4-difluorophenyl)-2-(1H-indole-3-yl)-4-oxo-butanoic acid], in assay [1] (setting [3]), the “ratio of tumor area in the colon” value is listed as “smaller” and the “number of tumors having a diameter of more than 2 mm” value (“number” below) is listed as “smaller”. Also, in assay [1] (setting [4]), the colon length result was “shortening was suppressed”, the “tumor area in the colon” value is “smaller”, the “ratio of tumor area in the colon” value is “smaller” and the “number” value is “smaller”.
For the compound `COc1cc(COc2ccc3[nH]cc(CC(=O)O)c3c2)cc(OC)c1` [Present Compound #2, 5-(3,5-dimethoxybenzyloxy)-3-indoleacetic acid], the cell migration level entry in assay [2] is “lower”. In addition, in assay [1] (setting [3]), the colon length entry was “shortening was suppressed” and the “tumor area in the colon” value was “smaller”. Further, in assay [1] (setting [4]), the colon length result is recorded as “shortening was suppressed”, the “tumor area in the colon” value is “smaller”, the “ratio of tumor area in the colon” value was “smaller” and the “number” value is on record as “smaller”. The survival entry in assay [1] (10 mg/kg body weight/day orally, 4 out of 8 mice died in the placebo group, FIG. 3) is reported as “all 8 mice survived”.
